This test deals with OG2 MEFs. Nature of the test: iPSC derivation from 4F (OSKM)-transduced OG2 MEFs in iSF1 media (Oct4-GFP colonies). Format: cell-based, mouse. The procedure: Recently, a serum-free media (iSF1) was developed to facilitate the generation of mouse iPSCs (39). The effect of compound OAC1 in the 4F-induced reprogramming was tested in iSF1 media. OG2 MEFs, derived from transgenic mice expressing the Oct4 promoter-driven GFP reporter (Oct4-GFP) (40), were transduced with retroviruses expressing the 4F reprogramming factors, Oct4, Sox2, Klf4, and c-Myc. The 4F-transduced cells were transferred to iSF1 media two days after viral transduction and this day was designated as day 0 (FIG. 3A). Treatment of compound OAC1 started on day 1 and lasted for 7 days. […] At day 5, a more than 3-fold increase in the number of GFP-positive colonies was detected in OAC1-treated, 4F-transduced cells (4F+OAC1), compared to vehicle-treated, 4F-transduced cells (FIG. 3B, C). […] The number of GFP-positive colonies in 4F-treated cells at day 8 (average of 200) was less than the number of GFP-positive colonies in 4F+OAC1-treated cells at day 5 (average of 350) (FIG. 3B, C).
iPSC Derivation in iSF1 Media: OG2 MEFs were seeded onto 6-well plates at the density of 3×10^4 cells per well in DMEM medium with 10% FBS, 0.1 mM NEAA, and 0.1 mM L-glutamine, 24 hr before transduction. Freshly prepared viruses of the 4F, Oct4, Sox2, c-Myc, and Klf4, were added to the cells. Two days after viral infection, the transduced OG2 MEFs were split into new 6-well plates with irradiated MEF feeders and cultured in iSF1 reprogramming media containing high glucose DMEM, 10% knockout serum, 0.5% N2, 5 ng/ml b-FGF, 2 mM L-glutamine, 0.1 mM 2-mercaptoethanol, 0.1 mM NEAA and 1000 U/ml of LIF. This day was defined as day 0. On day 1, 1 μM of each compound (OAC1, OAC2, and OAC3) was added to the 4F-transduced OG2 MEFs. Treatment was continued for 1 week. When iPSC colonies emerged, these colonies were picked for expansion on the irradiated MEF feeders in mouse ESC medium.

Compound `O=C(Nc1cc2cc[nH]c2cn1)c1ccccc1` [OAC1, N-(1H-6-azaindol-5-yl)benzamide] registered a Colony numbers (MEFs in iSF1 media, OSKM, seeding 3 × 10^4, day 8, 1 μM compound) of 800. Under “MEFs in iSF1 media, OSKM, seeding 3 × 10^4, day 8, colony numbers divided by seeding cell numbers”, this compound had a Reprogramming efficiency of 2.75%. The “day at which GFP+ colonies started to appear” value (iSF1 media, 4F+compound, days after transfer to iSF1 media) came out at 3 days. For the setting “iSF1 media, day 5”, the “increase in the number of GFP-positive colonies compared to vehicle-treated 4F-transduced cells” value is “more than 3 fold” and the “number of GFP-positive colonies (average)” value was found to be 350. In addition, the “reprogramming efficiency of 4F+compound relative to 4F alone in the initial Yamanaka study” value (not a direct comparison) is reported as “more than 20 fold”.

(Values after patent US8962322B2, “Enhancers of induced pluripotent stem cell reprogramming” (City of Hope, priority 2012, dated 2015).)
